The results in this text go back to PMC9941834, “Histidine supplementation can escalate or rescue HARS deficiency in a Charcot–Marie–Tooth disease model” (Human Molecular Genetics, 2022).

What all share (test): differential scanning fluorimetry (thermal shift)
Holding throughout (type): binding
In general terms: Differential scanning fluorimetry follows unfolding on heating by fluorescence.

Experiment [1] has as its target T1, hsHARS (human histidyl-tRNA synthetase, HARS) (Homo sapiens, UniProt P12081, V155G).
T1 construct: gene HARS1; hsHARS gene in pDest527, 6x-His tag, E. coli BL21 Codon Plus, Ni-NTA purified; dimeric protein
T1 sequence (P12081 1-509 V155G): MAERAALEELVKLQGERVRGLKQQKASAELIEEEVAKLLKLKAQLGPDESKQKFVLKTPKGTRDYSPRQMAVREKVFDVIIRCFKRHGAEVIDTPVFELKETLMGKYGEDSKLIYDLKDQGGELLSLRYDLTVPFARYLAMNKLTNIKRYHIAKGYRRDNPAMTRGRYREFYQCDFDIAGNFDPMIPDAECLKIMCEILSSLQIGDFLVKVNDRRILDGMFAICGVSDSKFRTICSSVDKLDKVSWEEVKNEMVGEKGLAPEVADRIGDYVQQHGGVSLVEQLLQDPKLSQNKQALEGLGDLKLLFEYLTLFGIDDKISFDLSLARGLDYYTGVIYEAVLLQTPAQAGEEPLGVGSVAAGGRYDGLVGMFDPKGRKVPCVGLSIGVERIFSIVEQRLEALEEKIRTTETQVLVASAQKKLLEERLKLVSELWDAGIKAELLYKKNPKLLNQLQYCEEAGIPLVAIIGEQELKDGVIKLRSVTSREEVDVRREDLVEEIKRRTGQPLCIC
As to conditions: 1 μM protein, apo mutant TM 59.8 ± 0.7 °C. From the text: (§1) differential scanning fluorimetry (thermal shift) on […]

Experiment [2] has as its target T2, hsHARS (human histidyl-tRNA synthetase, HARS) (Homo sapiens, UniProt P12081, Y454S).
T2 construct: gene HARS1; hsHARS gene in pDest527, 6x-His tag, E. coli BL21 Codon Plus, Ni-NTA purified; dimeric protein
T2 sequence (P12081 1-509 Y454S): T1 sequence (P12081 1-509 V155G) with G155V, Y454S
The conditions noted are these: 1 μM protein, apo mutant TM 50 ± 1.8 °C.
From the text: as §1

Experiment [3] has as its target T3, hsHARS (human histidyl-tRNA synthetase, HARS) (Homo sapiens, UniProt P12081, V133F).
T3 construct: gene HARS1; hsHARS gene in pDest527, 6x-His tag, E. coli BL21 Codon Plus, Ni-NTA purified; dimeric protein
T3 sequence (P12081 1-509 V133F): T1 sequence (P12081 1-509 V155G) with V133F, G155V
The conditions noted are these: 500 μM ATP, 1 μM protein; apo mutant TM 52 ± 1.2 °C. From the text:
differential scanning fluorimetry (thermal shift) on hsHARS (human histidyl-tRNA synthetase, HARS) | high ATP concentrations increase the thermal stability of HARS V133F to wild-type levels

Substitutions are numbered along the chain they refer to.

For the compound `Nc1ncnc2c1ncn2[C@@H]1O[C@H](COP(=O)(O)OP(=O)(O)OP(=O)(O)O)[C@@H](O)[C@H]1O` [ATP], the TM entry in experiment [1] (500 μM ATP) was “all substrate supplementations restored wild-type like levels of protein stability”; in experiment [2] (500 μM ATP) it was “The addition of tRNA or ATP alone or in combination slightly increased stability”; in experiment [3], 63 ± 1.9 °C.
Turning to `N[C@@H](Cc1cnc[nH]1)C(=O)O` [histidine], the TM result in experiment [1] (1 mM histidine) was “all substrate supplementations restored wild-type like levels of protein stability”; in experiment [2] (1 mM histidine) it was 57.8 ± 0.8 °C.
